Measurements from article PMC3960879 (Biology, 2013).
Read-outs that look alike come from different tables or passages of the source.

Experiments:
[1] = target: T1, F17aG receptor-binding domain (Escherichia coli, UniProt Q99003); experiment: biochemical; details: SPR steady state, 25 °C, pH 7.4
T1 construct: variants of the lectin domains with oligolysine (4Lys) tails have been constructed; made in house; host or cells: E. coli (periplasm)
Protocol: The affinity profiles were determined by surface plasmon resonance (SPR) measurements using a BiaCore 3000 instrument (GE Healthcare). […] The proteins were covalently immobilized on CM5 sensor chips (Biacore AB) to an average density of 2000 RU (resonance units in pg/mm^2). On each chip, one flow cell was coated with a camel single domain antibody for use as a reference cell. The other three flow cells (Fc2, Fc3 and Fc4) were coated with three different F17G variants. Carbohydrate concentrations ranging from 10 µM to 10 mM in running buffer (20 mM Hepes, pH 7.4; 150 mM NaCl; 3 mM EDTA and 0.005% surfactant Tween 20) were incubated for one minute on all flow cells simultaneously, at 25 °C and at a flow rate of 30 µL/min. Complete dissociation of the carbohydrates in running buffer was verified before starting a new binding cycle. All binding cycles were performed in duplicate, including a zero concentration cycle (injection of pure running buffer). All analysis was done using the BIAeval software. In each case the equilibrium resonance signal from the reference cell was subtracted from that of the various F17G flow cells (2-1, 3-1, 4-1). A Langmuir binding isotherm with a 1:1 stoichiometry was fitted to the data, from which the equilibrium dissociation constants, Kd, were obtained.

[2] = test system: F17fG lectin domain; experiment: CFG mammalian printed glycan array version 2 (experiment 400), F17fG; assay type: binding, Escherichia coli; details: CFG glycan array version 2; F17G at 200 µg/mL; SEM in parentheses
Text: (§1) The slide was dried under a stream of nitrogen.

[3] = target: F17dG lectin domain (Escherichia coli, UniProt Q47199); details: CFG glycan array version 2; F17G at 200 µg/mL; SEM in parentheses
Chain of F17dG lectin domain (Q47199 23-199): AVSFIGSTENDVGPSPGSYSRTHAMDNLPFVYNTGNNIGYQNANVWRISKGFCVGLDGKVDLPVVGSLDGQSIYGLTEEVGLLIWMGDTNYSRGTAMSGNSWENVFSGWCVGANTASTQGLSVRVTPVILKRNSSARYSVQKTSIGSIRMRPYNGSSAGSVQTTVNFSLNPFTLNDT
Protocol: (§2) A microarray presenting 264 different glycans (mammalian printed array version 2) was used to evaluate if the F17G variant lectin domains differ in the range of glycan receptors that they recognize, thereby establishing tropism. The microarray was set up within the Consortium for Functional Glycomics (CFG) ([20], and supplemental data). Binding of F17G (200 µg/mL) was detected using anti-F17G polyclonal rabbit IgG (10 µg/mL), followed by fluorescently labelled goat anti-rabbit polyclonal antibodies (IgG-488, 5 µg/mL).
(§3) A microarray presenting 264 different glycans (mammalian printed array version 2 from the CFG, experiment 400) was used to evaluate whether the F17G variant lectin domains differ in the range of glycan receptors that they can recognize, thereby establishing strain-dependent tropism. […] The glycan array screening has been repeated for F17aG only on printed array version 4.1 (experiment 2053) (Figure 1).
(§4) Printed array version 2 at the Consortium for Functional Glycomics was used for glycan array screening of the variant F17G receptor binding domains. Slides were printed, with six replicates for each glycan, using glycan spotting concentrations of 100 μM, at the Consortium Carbohydrate Synthesis/Protein Expression Core D located at the Scripps Research Institute onto Schott Nexterion H slides (Schott Cat. No. 1070936B). Slide conditioning: preprinted slides were soaked in deionized water for 5 minutes at room temperature and dried under a stream of nitrogen. TSM buffer (20 mM Tris-HCl, pH 7.4, or MOPS 20 mM; 150 mM NaCl; 2 mM CaCl2, 2 mM MgCl2) was used as wash buffer (TSM buffer + 0.05% Tween 20) or binding buffer (TSM buffer + 0.05% Tween 20 + 1% BSA). (1) F17G was diluted to 200 μg/mL (Figure 1) in TSM binding buffer. (2) 50 μL of F17G was applied to the printed surface and coverslipped. (3) The slide was incubated, protected from light, in a humidified chamber for 1 hour at RT. (4) The slide was washed once in TSM wash buffer. 50 μL of the anti-F17G (10 μg/mL) polyclonal rabbit IgG were applied, coverslipped and incubated for 1 h at RT. (5) The slide was washed once in TSM wash buffer. Fifty μL of fluorescently labelled secondary goat anti-rabbit polyclonal antibodies (IgG-488, 5 µg/mL) were applied, coverslipped and incubated for 1 h at RT. (6) Slide was removed, followed by the coverslip, and washed for 10 s each in TSM wash buffer, TSM wash buffer lacking Tween 20, and deionized water. The slide was dried under a stream of nitrogen. (7) The binding image was read in a Perkin Elmer Microscanarray XL4000 scanner and tiff file of image stored. (8) Image analysis was performed using Imagene (V.6) image analysis software. (9) Raw data results files were generated in Excel format and uploaded to the Consortium database as .dat files. (10) Imagene data was uploaded to the database as .txt files.

[4] = target: F17bG lectin domain (Escherichia coli, UniProt Q47200); details: CFG glycan array version 2; F17G at 200 µg/mL; SEM in parentheses
Chain of F17bG lectin domain (Q47200 23-199): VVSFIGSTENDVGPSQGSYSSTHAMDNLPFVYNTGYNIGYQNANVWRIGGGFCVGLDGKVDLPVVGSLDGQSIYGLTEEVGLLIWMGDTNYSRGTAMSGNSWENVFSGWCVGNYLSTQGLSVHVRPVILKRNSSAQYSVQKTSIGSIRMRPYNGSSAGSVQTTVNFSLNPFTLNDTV
Protocol: as §2, §3, §4

[5] = target: F17aG lectin domain (Escherichia coli, UniProt Q99003); details: CFG glycan array version 2; F17G at 200 µg/mL; SEM in parentheses
Chain of F17aG lectin domain (Q99003 23-199): as the sequence (Q47199 23-199) above, with P16L, N33D, G35R, N37K, R47H, N90K counted along it
Protocol: as §2, §3, §4

[6] = test system: F17eG lectin domain; experiment: CFG mammalian printed glycan array version 2 (experiment 400), F17eG; assay type: binding, Escherichia coli; details: CFG glycan array version 2; F17G at 200 µg/mL; SEM in parentheses
Text: as §1

[7] = read-out: Affinity range (Kd class), F17aG
[8] = good fit for at least three related experiments, read-out: dissociation constant Kd, F17aG

T1 sequence (Q99003 23-199): as the sequence (Q47199 23-199) above, with P16L, N33D, G35R, N37K, R47H, N90K counted along it

Row | Compound | Kd [1, 7] | Relative Fluorescence Units (RFU), averaged over six replicates, F17fG [2] | Relative Fluorescence Units (RFU), averaged over six replicates, F17dG [3] | Relative Fluorescence Units (RFU), averaged over six replicates, F17bG [4] | Relative Fluorescence Units (RFU), averaged over six replicates, F17aG [5] | Relative Fluorescence Units (RFU), averaged over six replicates, F17eG [6] | Kd [1, 8]
1 | CC(=O)N[C@H]1[C@H](O[C@H]2[C@@H](O)[C@@H](CO)O[C@@H](O[C@H]3[C@H](O)[C@@H](O)C(O)O[C@@H]3CO)[C@@H]2O)O[C@H](CO)[C@@H](O)[C@@H]1O[C@@H]1O[C@H](CO)[C@H](O)[C@H](O)[C@H]1O[C@@H]1O[C@@H](C)[C@@H](O)[C@@H](O)[C@@H]1O (stereo partly drawn) [Fucα1,2Galβ1,3GlcNAcβ1,3Galβ1,4Glc] | > 100 mM | – | – | – | – | – | –
2 | COc1ccc(O[C@@H]2O[C@H](CO)[C@@H](O[C@@H]3O[C@H](CO)[C@H](O)[C@H](O)[C@H]3NC(C)=O)[C@H](O)[C@H]2NC(C)=O)cc1 [GalNAcβ1,4GlcNAcβ1-methoxy phenyl] | 1 to 10 mM | – | – | – | – | – | –
3 | CC(=O)N[C@H]1[C@H](OC[C@H]2O[C@H](OCCCN)[C@H](NC(C)=O)[C@@H](O[C@@H]3O[C@H](CO)[C@H](O)[C@H](O)[C@H]3O)[C@H]2O)O[C@H](CO)[C@@H](O)[C@@H]1O [Galβ1,3(GlcNAcβ1,6)GalNAcα-Sp8] | – | 3,195 (811) RFU | 3,850 (364) RFU | 6,215 (1,046) RFU | 10,256 (1,410) RFU | 50,893 (5,540) RFU | –
4 | CC(=O)N[C@H]1C(O)O[C@H](CO)[C@H](O)[C@@H]1O[C@@H]1O[C@H](CO)[C@H](O)[C@H](O)[C@H]1O (stereo partly drawn) [Galβ1,3GalNAc] | 10 to 100 mM | – | – | – | – | – | –
5 | CC(=O)N[C@H]1[C@H](O[C@H]2[C@@H](O)[C@@H](CO)O[C@@H](O[C@H]3[C@H](O)[C@@H](O)C(O)O[C@@H]3CO)[C@@H]2O)O[C@H](CO)[C@@H](O[C@@H]2O[C@H](CO)[C@H](O)[C@H](O)[C@H]2O)[C@@H]1O (stereo partly drawn) [Galβ1,4GlcNAcβ 1,3Gal β1,4Glc] | 10 to 100 mM | – | – | – | – | – | –
6 | CC(=O)N[C@H]1[C@H](OCCCN)O[C@H](CO)[C@@H](O[C@@H]2O[C@H](CO[C@@H]3O[C@H](CO)[C@@H](O)[C@H](O)[C@H]3NC(C)=O)[C@H](O)[C@H](O[C@@H]3O[C@H](CO)[C@@H](O)[C@H](O)[C@H]3NC(C)=O)[C@H]2O)[C@@H]1O [GlcNAcβ1,3(GlcNAcβ1,6)Galβ1,4GlcNAcβ-Sp8] | – | 37,083 (5,973) RFU | 17,195 (3,442) RFU | 21,630 (2,490) RFU | 44,391 (3,949) RFU | 41,907 (4,694) RFU | –
7 | CC(=O)N[C@H]1[C@H](O[C@H]2[C@@H](O)[C@@H](CO)O[C@H](OCCCN)[C@@H]2NC(C)=O)O[C@H](CO)[C@@H](O)[C@@H]1O [GlcNAcβ1,3GalNAcα-Sp8] | – | 10,999 (2,929) RFU | 6,635 (2,735) RFU | 15,182 (2,925) RFU | 25,971 (3,174) RFU | 33,330 (7,321) RFU | –
8 | CC(=O)N[C@H]1[C@H](O[C@H]2[C@@H](O)[C@@H](CO)O[C@@H](OCCCN)[C@@H]2O)O[C@H](CO)[C@@H](O)[C@@H]1O [GlcNAcβ1,3Galβ-Sp8] | – | 27,648 (1,137) RFU | 16,277 (9,959) RFU | 16,310 (1,907) RFU | 32,288 (4,175) RFU | 38,836 (5,631) RFU | –
9 | CC(=O)N[C@H]1[C@H](OCCCN)O[C@H](CO)[C@@H](O[C@@H]2O[C@H](CO)[C@@H](O[C@@H]3O[C@H](CO)[C@@H](O)[C@H](O)[C@H]3NC(C)=O)[C@H](O)[C@H]2NC(C)=O)[C@@H]1O [GlcNAcβ1,4GlcNAcβ1,4GlcNAcβ-Sp8] | – | 2,418 (613) RFU | 1,690 (251) RFU | 2,860 (706) RFU | 848 (88) RFU | 5,689 (1,085) RFU | –
10 | CC(=O)N[C@H]1[C@H](OCCN)O[C@H](CO)[C@@H](O)[C@@H]1O [GlcNAcβ-Sp0] | – | 5,354 (1,572) RFU | 3,377 (643) RFU | 14,972 (2,705) RFU | 15,621 (2,697) RFU | 34,825 (6,475) RFU | –
11 | CC(=O)N[C@H]1[C@H](OCCCN)O[C@H](CO)[C@@H](O)[C@@H]1O [GlcNAcβ-Sp8] | – | 10,738 (2,670) RFU | 2,514 (365) RFU | 12,289 (1,168) RFU | 22,909 (3,087) RFU | 31,863 (4,615) RFU | –
12 | NCCCO[C@@H]1O[C@H](CO)[C@@H](O)[C@H](O)[C@H]1N [GlcNH2β-Sp8] | – | 1,385 (464) RFU | 1,950 (1,358) RFU | 7,281 (1,506) RFU | 554 (117) RFU | 548 (256) RFU | –
13 | CO[C@H]1O[C@H](CO)[C@@H](O)[C@H](O)[C@H]1NC(C)=O [Me α N-acetylglucosamine] | – | – | – | – | – | – | 9.8 mM
14 | CO[C@@H]1O[C@H](CO)[C@@H](O)[C@H](O)[C@H]1NC(C)=O [Me β N-acetylglucosamine] | 1 to 10 mM | – | – | – | – | – | 1.2 mM
15 | Gal β1,4 GlcNAc | 1 to 10 mM | – | – | – | – | – | –
16 | GalNAcβ1,3GalNAcα-Sp8 | – | 10,691 (3,009) RFU | 11,034 (1204) RFU | 17,169 (4,228) RFU | – | 50,791 (5,749) RFU | –
17 | GlcNAcβ1,3(GlcNAcβ1,6)GalNAcα-Sp8 | – | – | 23,756 (2,105) RFU | 12,183 (1,524) RFU | 35,858 (4,079) RFU | 46,840 (6,520) RFU | –
18 | GlcNAcβ1,6(Galβ1,3)GalNAcα-Sp8 | – | 3,206(997) RFU | 3,492 (658) RFU | 6,017 (587) RFU | 12,541 (1,115) RFU | – | –
